Measured values as given in ChEMBL document CHEMBL1933041, “Synthesis and biological evaluation of substituted pyrazoles as blockers of divalent metal transporter 1 (DMT1)” (Bioorg Med Chem Lett, 2012).

Tests used:
[1] = Permeability from apical to basolateral side in human Caco2 cells; assay type: ADME, cell-based; details: Caco-2, read-out: permeability
[2] = Permeability from basolateral to apical side in human Caco2 cells; assay type: ADME, cell-based; details: Caco-2, read-out: permeability

Row | Structure (SMILES) | Papp A→B [1] | Papp B→A [2]
1 | CCN(CC)c1ccc(/C=C2\C(=O)N(c3ccccn3)N=C2C)cc1 | 0.3 ×10⁻⁶ cm/s | 0.6 ×10⁻⁶ cm/s
2 | Cc1nn(-c2ccccn2)c(O)c1-c1ccccc1 | 8.2 ×10⁻⁶ cm/s | 16.7 ×10⁻⁶ cm/s
3 | Cc1[nH]n(-c2ccccn2)c(=O)c1C(=O)Nc1ccccc1 | 10.4 ×10⁻⁶ cm/s | 19.6 ×10⁻⁶ cm/s
4 | Cc1[nH]n(-c2nccs2)c(=O)c1-c1ccccc1 | 23.9 ×10⁻⁶ cm/s | 23.8 ×10⁻⁶ cm/s
5 | Cc1cccc(NC(=O)c2c(C)[nH]n(-c3ccccn3)c2=O)c1 | 9.9 ×10⁻⁶ cm/s | 15.6 ×10⁻⁶ cm/s
6 | COc1cccc(NC(=O)c2c(C)[nH]n(-c3ccccn3)c2=O)c1 | 9 ×10⁻⁶ cm/s | 15.4 ×10⁻⁶ cm/s
7 | Cc1ccc(NC(=O)c2c(C)[nH]n(-c3ccccn3)c2=O)cc1 | 6.1 ×10⁻⁶ cm/s | 15.3 ×10⁻⁶ cm/s
8 | Cc1[nH]n(-c2ccccn2)c(=O)c1C(=O)Nc1ccccc1[N+](=O)[O-] | 11.2 ×10⁻⁶ cm/s | 15.5 ×10⁻⁶ cm/s
9 | Cc1[nH]n(-c2ccccn2)c(=O)c1C(=O)Nc1ccccc1C(F)(F)F | 7.8 ×10⁻⁶ cm/s | 14.2 ×10⁻⁶ cm/s
10 | Cc1[nH]n(-c2ccccn2)c(=O)c1C(=O)Nc1ccc2c(c1)OCO2 | 9.3 ×10⁻⁶ cm/s | 20.8 ×10⁻⁶ cm/s
11 | COc1ccc(-c2c(C)[nH]n(-c3ccccn3)c2=O)cc1 | 12.7 ×10⁻⁶ cm/s | 16.3 ×10⁻⁶ cm/s
12 | Cc1[nH]n(-c2ccccn2)c(=O)c1-c1ccc(C#N)cc1 | 21.4 ×10⁻⁶ cm/s | 27.8 ×10⁻⁶ cm/s
13 | Cc1[nH]n(-c2ccccn2)c(=O)c1-c1ccc([N+](=O)[O-])cc1 | 3.5 ×10⁻⁶ cm/s | 5.6 ×10⁻⁶ cm/s
14 | Cc1[nH]n(-c2ccccn2)c(=O)c1-c1ccc(C(F)(F)F)cc1 | 3.1 ×10⁻⁶ cm/s | 7.9 ×10⁻⁶ cm/s
15 | Cc1[nH]n(-c2ccccn2)c(=O)c1-c1cccc(C(F)(F)F)c1 | 7 ×10⁻⁶ cm/s | 5.8 ×10⁻⁶ cm/s
16 | Cc1[nH]n(-c2ccccn2)c(=O)c1-c1ccc(F)cc1 | 11.2 ×10⁻⁶ cm/s | 15.9 ×10⁻⁶ cm/s
17 | Cc1[nH]n(-c2ccccn2)c(=O)c1C(=O)Nc1cccc(C(F)(F)F)c1 | 4.5 ×10⁻⁶ cm/s | 8.9 ×10⁻⁶ cm/s
18 | Cc1[nH]n(-c2ccccn2)c(=O)c1C(=O)Nc1ccc([N+](=O)[O-])cc1 | 7.6 ×10⁻⁶ cm/s | 11.5 ×10⁻⁶ cm/s
19 | COc1ccc(NC(=O)c2c(C)[nH]n(-c3ccccn3)c2=O)cc1F | 6.6 ×10⁻⁶ cm/s | 13.2 ×10⁻⁶ cm/s
20 | Cc1[nH]n(-c2ccccn2)c(=O)c1C(=O)Nc1ccc(C(F)(F)F)cc1 | 0.6 ×10⁻⁶ cm/s | 3.9 ×10⁻⁶ cm/s

More lines, now with the values ahead:

Row | Papp A→B [1] | Papp B→A [2] | Structure (SMILES)
21 | 6.7 ×10⁻⁶ cm/s | 6.6 ×10⁻⁶ cm/s | Cc1nn(-c2nc3ccccc3s2)c(O)c1-c1ccccc1
22 | 10.1 ×10⁻⁶ cm/s | 13.5 ×10⁻⁶ cm/s | Cc1nn(-c2nc3ccccc3[nH]2)c(O)c1-c1ccccc1
23 | 5.2 ×10⁻⁶ cm/s | 3.4 ×10⁻⁶ cm/s | Cc1ccc2nc(-n3nc4c(c3O)-c3ccccc3CC4)sc2c1
24 | 12.7 ×10⁻⁶ cm/s | 16.7 ×10⁻⁶ cm/s | COc1ccc2nc(-n3nc4c(c3O)-c3ccccc3CC4)sc2c1
25 | 4.3 ×10⁻⁶ cm/s | 1.1 ×10⁻⁶ cm/s | Oc1c2c(nn1-c1nc3ccc(F)cc3s1)CCc1ccccc1-2
26 | 20.8 ×10⁻⁶ cm/s | 24 ×10⁻⁶ cm/s | Oc1c2c(nn1-c1nc3ccccc3s1)CCc1ccccc1-2
27 | 8.9 ×10⁻⁶ cm/s | 11.7 ×10⁻⁶ cm/s | Oc1c2c(nn1-c1ccccn1)CCc1ccccc1-2
28 | 5.1 ×10⁻⁶ cm/s | 6.3 ×10⁻⁶ cm/s | Oc1c2c(nn1-c1nc3ccccc3[nH]1)CCc1ccccc1-2
29 | 0.1 ×10⁻⁶ cm/s | 0.9 ×10⁻⁶ cm/s | Oc1c2c(nn1-c1ccccn1)CCc1cc(-c3ccccc3)ccc1-2
30 | 3.2 ×10⁻⁶ cm/s | 7.6 ×10⁻⁶ cm/s | Oc1c2c(nn1-c1ccccn1)CCc1cc(Br)ccc1-2
31 | 2.3 ×10⁻⁶ cm/s | 13.1 ×10⁻⁶ cm/s | N#Cc1ccc2c(c1)CCc1nn(-c3ccccn3)c(O)c1-2
32 | 16.8 ×10⁻⁶ cm/s | 20.1 ×10⁻⁶ cm/s | Cc1[nH]n(-c2nc3ccc(F)cc3s2)c(=O)c1-c1ccccc1
